# Test results taken from ChEMBL document CHEMBL5608163, “Structure modification of anoplin for fighting resistant bacteria” (Eur J Med Chem, 2024).
# Square brackets hold non-standard residues; d marks the D form. Peptide text beside a SMILES is read from it. 2Nal = N[C@@H](Cc1ccc2ccccc2c1)C(=O)O; Cha = N[C@@H](CC1CCCCC1)C(=O)O
# Key:
# Klebsiella pneumoniae = assay: Antibacterial activity against Klebsiella pneumoniae ATCC 700603 assessed as reduction in bacterial growth measured after 18 to 24 hrs by CLSI protocol-based Mueller-Hinton broth dilution method; format: functional; details: time 18-24 hrs
# Pseudomonas aeruginosa [1] = assay: Antibacterial activity against multi-drug resistant Pseudomonas aeruginosa clinical isolate 119 assessed as reduction in bacterial growth measured after 18 to 24 hrs by CLSI protocol-based Mueller-Hinton broth dilution method; format: functional; details: time 18-24 hrs
# Bacillus subtilis [2] = assay: Antibacterial activity against Bacillus subtilis ATCC 23857 assessed as reduction in bacterial growth measured after 18 to 24 hrs by CLSI protocol-based Mueller-Hinton broth dilution method; format: functional; details: time 18-24 hrs
# Escherichia coli [3] = assay: Antibacterial activity against multi-drug resistant Escherichia coli clinical isolate 850 assessed as reduction in bacterial growth measured after 18 to 24 hrs by CLSI protocol-based Mueller-Hinton broth dilution method; format: functional; details: time 18-24 hrs
# Staphylococcus aureus [4] = assay: Antibacterial activity against Staphylococcus aureus ATCC 25923 assessed as reduction in bacterial growth measured after 18 to 24 hrs by CLSI protocol-based Mueller-Hinton broth dilution method; format: functional; details: time 18-24 hrs
# Acinetobacter baumannii = assay: Antibacterial activity against multi-drug resistant Acinetobacter baumannii clinical isolate 9840 assessed as reduction in bacterial growth measured after 18 to 24 hrs by CLSI protocol-based Mueller-Hinton broth dilution method; format: functional; details: time 18-24 hrs
# Escherichia coli [5] = assay: Antibacterial activity against Escherichia coli ATCC 25922 assessed as reduction in bacterial growth incubated for 18 to 24 hrs by broth microdilution method; format: functional; details: time 18-24 hrs
# Staphylococcus aureus [6] = assay: Antibacterial activity against methicillin-resistant Staphylococcus aureus ATCC 33591 assessed as reduction in bacterial growth incubated for 16 to 24 hrs by agar dilution method; format: functional; details: time 16-24 hrs
# [7] = Hemolytic activity in human RBC; format: toxicity, cell-based, Erythrocyte; details: red blood cells
# Enterococcus faecium = assay: Antibacterial activity against vancomycin resistant Enterococcus faecium NCTC 12204 assessed as reduction in bacterial growth by microdilution broth method; format: functional
# [8] = Hemolytic activity against Red blood cells (unknown origin) incubated for 1 hr by spectrophotometric analysis; format: toxicity, cell-based, Erythrocyte
# Pseudomonas aeruginosa [9] = assay: Antibacterial activity against Pseudomonas aeruginosa ATCC 15442 assessed as reduction in bacterial cell growth incubated for 18 to 24 hrs by two fold serial microdilution method; format: functional; details: time 18-24 hrs
# [10] = system: Mycolicibacterium smegmatis; assay: Antimycobacterial activity against Mycobacterium smegmatis mc2 155 assessed as reduction in bacterial cell growth incubated for 24 hrs by resazurin dye based broth microdilution method; format: functional
# Bacillus subtilis [11] = assay: Antimicrobial activity against Bacillus subtilis assessed as microbial growth inhibition incubated for 24 hrs by broth micro-dilution method; format: functional
# [12] = Hemolytic activity against human Red blood cells assessed as cell lysis; format: toxicity, cell-based, Erythrocyte
# Escherichia coli [13] = assay: Antibacterial acitivity against Escherichia coli DH5a assessed as bacterial growth inhibition incubated for 24 hrs by broth micro-dilution method; format: functional
# Zymomonas mobilis = assay: Antibacterial activity against Zymomonas mobilis ATCC 10988 assessed as reduction in bacterial growth incubated for 24 hrs by broth micro-dilution method; format: functional
# Pseudomonas aeruginosa [14] = assay: Antimicrobial activity against Pseudomonas aeruginosa assessed as inhibition of microbial growth incubated for 24 hrs by microdilution method; format: functional
compound,measurement,setting,value
CC[C@H](C)[C@H](NC(=O)[C@H](CCCNC(=N)N)NC(=O)[C@H](CCCCN)NC(=O)[C@@H](CC(C)C)NC(=O)[C@H](CC(C)C)NC(=O)CNC(C)=O)C(=O)N[C@@H](CCCCN)C(=O)N[C@H](C(=O)N[C@H](CC(C)C)C(=O)N[C@H](CC(C)C)C(=O)NC(Cc1cn(CCCC[C@H](NC(=O)[C@H](CC(C)C)NC(=O)[C@H](CC(C)C)NC(=O)[C@@H](NC(=O)[C@@H](CCCCN)NC(=O)[C@@H](NC(=O)[C@H](CCCNC(=N)N)NC(=O)[C@@H](CCCCN)NC(=O)[C@H](CC(C)C)NC(=O)[C@H](CC(C)C)NC(=O)CNC(C)=O)[C@@H](C)CC)[C@@H](C)O)C(N)=O)nn1)C(N)=O)[C@@H](C)O (some centres not stated),MIC,Klebsiella pneumoniae,16 µM
same,MIC,Pseudomonas aeruginosa [1],16 µM
same,MIC,Bacillus subtilis [2],2 µM
same,MIC,Escherichia coli [3],4 µM
same,MIC,Staphylococcus aureus [4],32 µM
same,MIC,Acinetobacter baumannii,2 µM
CC(C)C[C@H](NC(=O)CN)C(=O)N[C@@H](CC(C)C)C(=O)N[C@@H](CCCCN)C(=O)N[C@@H](CCCCN)C(=O)N[C@@H](Cc1ccc2ccccc2c1)C(=O)N[C@@H](CCCCN)C(=O)N[C@H](C(=O)N[C@@H](CC(C)C)C(=O)N[C@@H](CC1CCCCC1)C(N)=O)[C@@H](C)O (H-GLLKK[2Nal]KTL[Cha]-NH2),MIC,Escherichia coli [5],9.5 µM
same,MIC,Staphylococcus aureus [6],9.5 µM
same,HC50,[7],26.6 µM
same,MIC,Enterococcus faecium,4.6 µM
same,HC50 at 1 h,[8],26.6 µM
same,MIC,Pseudomonas aeruginosa [9],6.6 µM
CC[C@H](C)[C@H](NC(=O)[C@H](CCCNC(=N)N)NC(=O)[C@@H](CCCCN)NC(=O)[C@H](CC(C)C)NC(=O)[C@H](CC(C)C)NC(=O)CNC(C)=O)C(=O)N[C@H](CCCCN)C(=O)N[C@H](C(=O)N[C@@H](CC(C)C)C(=O)N[C@@H](CC(C)C)C(=O)NC(Cc1cn(CCCC[C@H](NC(=O)[C@H](CC(C)C)NC(=O)[C@H](CC(C)C)NC(=O)[C@@H](NC(=O)[C@@H](CCCCN)NC(=O)[C@@H](NC(=O)[C@@H](CCCNC(=N)N)NC(=O)[C@H](CCCCN)NC(=O)[C@H](CC(C)C)NC(=O)[C@H](CC(C)C)NC(=O)CNC(C)=O)[C@@H](C)CC)[C@@H](C)O)C(N)=O)nn1)C(N)=O)[C@@H](C)O (some centres not stated),MIC,Klebsiella pneumoniae,64 µM
same,MIC,Pseudomonas aeruginosa [1],32 µM
same,MIC,Bacillus subtilis [2],64 µM
same,MIC,Escherichia coli [3],16 µM
same,MIC,Staphylococcus aureus [4],64 µM
same,MIC,Acinetobacter baumannii,4 µM
CC[C@H](C)[C@H](NC(=O)[C@H](CCCCN)NC(=O)[C@H](CC(C)C)NC(=O)[C@H](CC(C)C)NC(=O)CN)C(=O)N[C@H](C(=O)N[C@@H](CCCCN)C(=O)N[C@@H](CCCCN)C(=O)N[C@@H](CC(C)C)C(=O)N[C@@H](CC(C)C)C(N)=O)[C@@H](C)CC (H-GLLKIIKKLL-NH2),MIC,[10],16.7 µM
same,MIC,Bacillus subtilis [11],5.9 µM
same,HC50,[12],> 167 µM
same,MIC,Escherichia coli [13],83.7 µM
same,MIC,Zymomonas mobilis,2.5 µM
same,MIC,Pseudomonas aeruginosa [14],2.5 µM
CC[C@H](C)[C@H](NC(=O)[C@H](CCCNC(=N)N)NC(=O)[C@H](CCCCN)NC(=O)[C@H](CCCCN)NC(=O)[C@H](CC(C)C)NC(=O)CN)C(=O)N[C@@H](CCCCN)C(=O)N[C@@H](CCCCN)C(=O)N[C@@H](CC(C)C)C(=O)N[C@@H](CC(C)C)C(N)=O (H-GLKKRIKKLL-NH2),MIC,[10],13 µM
same,MIC,Bacillus subtilis [11],13 µM
same,HC50,[12],> 174 µM
same,MIC,Escherichia coli [13],> 174 µM
same,MIC,Zymomonas mobilis,12.6 µM
same,MIC,Pseudomonas aeruginosa [14],13 µM
CC[C@H](C)[C@H](NC(=O)[C@H](Cc1ccccc1)NC(=O)[C@H](CCCCN)NC(=O)[C@H](CC(C)C)NC(=O)[C@H](CC(C)C)NC(=O)CN)C(=O)N[C@@H](CCCCN)C(=O)N[C@@H](CCCNC(=N)N)C(=O)N[C@@H](CC(C)C)C(=O)N[C@@H](CC(C)C)C(N)=O (H-GLLKFIKRLL-NH2),MIC,[10],4.2 µM
same,MIC,Bacillus subtilis [11],167 µM
same,HC50,[12],> 167 µM
same,MIC,Escherichia coli [13],167 µM
same,MIC,Zymomonas mobilis,17.4 µM
same,MIC,Pseudomonas aeruginosa [14],2.5 µM
CC[C@H](C)[C@H](NC(=O)[C@H](CCCCN)NC(=O)[C@H](CCCCN)NC(=O)[C@H](CC(C)C)NC(=O)[C@H](CC1CCCCC1)NC(=O)CN)C(=O)N[C@@H](CCCCN)C(=O)N[C@@H](CCCCN)C(=O)N[C@@H](CC(C)C)C(=O)N[C@@H](CC1CCCCC1)C(N)=O (H-G[Cha]LKKIKKL[Cha]-NH2),MIC,Escherichia coli [5],4.6 µM
same,MIC,Staphylococcus aureus [6],3.2 µM
same,HC50,[7],0.5 µM
same,MIC,Enterococcus faecium,3.2 µM
same,HC50 at 1 h,[8],0.5 µM
same,MIC,Pseudomonas aeruginosa [9],3.2 µM
